Test results from US5852033A, “Methods of treatment using lamellarin-class alkaloids” (Pharma Mar, s.a., priority 1995, dated 1998).
Values after ≈ are worked out from the molar mass of the structure shown. Where two headings read alike, the source gives them in different places.

Experiments:
P-388 = assay: LAMELLARINS TOXICITY TO SENSITIVE TUMOR CELL LINE P-388 (MTT); format: cell-based; details: Mus musculus, P388, 72 h, read-out: ACTIVITY: IC50
Procedure: (§1) Sensitive and MDR cells were maintained, in logarithmic phase of growth, in Eagle's Minimum Essential Medium, with Earle's Balanced Salts, with non-essential amino acids, with 2.0 mM L-glutamine, without sodium bicarbonate (EMEM/neaa), supplemented with 5% Fetal Calf Serum (FCS), 10^-2 M sodium bicarbonate and 0.1 g/l penicillin G+0.1 g/l streptomycin sulfate.
(§2) In Vitro cell cytotoxicity was determined using the 3-[4,5-dimethylthiazol-2-yl]-2,5-dipheniltetrazolium bromide (MTT), from Sigma Ref:M-2128, for quantitative measurement of cell growth and viability. See, T. Mosmann, "Rapid Colorimetric Assay for Cellular Growth and Survival: Application to Proliferation and Cytotoxicity Assays," Journal of Immunological Methods, 65: 55-63 (1983).
(§3) The tumor cell lines employed have been: P-388 (ATCC CCL 46), suspension culture of a lymphoid neoplasm from a DBA/2 mouse and its corresponding MDR cell line P-388/SCHABEL; CHOB1 (ATCC CCL 16), monolayer culture of chinese hamster ovary and its corresponding MDR cell line CHOC5. See, Rauscher Ill, et al., "Characterization of Auromycin-Resistant Hamster Cell Mutants that Display a Multidrug Resistance Phenotype," Molecular Pharmacology, 38: 198-206 (1990).
(§4) This form of assay employs 96-well cell culture plates […]. Cells were seeded into wells at 1×10^3 cells per well in 100 μl aliquots of EMEM 5% FCS containing different concentrations of the corresponding lamellarins and other compounds (standards) to be tested. Two separate sets of cultures without drugs were seeded, one as control of growth to ensure that cells remained in exponential phase of growth, and another without cells as control of medium. All determinations were carried out in duplicate.
(§5) After three days of incubation at 37° C., 10% CO2 in a 98% humid atmosphere, 150 μg of MTT is added to each well in 50 μl aliquots of assay medium. Plates were incubated for an additional 4 hours and 100 μl aliquots of isopropanol were added to each well. The broad absorption spectrum for the isopropanol solution of this crystal is optimal at 570 nm. Optical density values were obtained with the help of a Dynatech microplate reader and the results of the assay were used to generate graphics from which IC50 was calculated; i.e., wherein the IC50 is the test concentration which produces 50% cell growth inhibition.

P-388/SCHABEL (MDR) = assay: LAMELLARINS TOXICITY TO RESISTANT (MDR) TUMOR CELL LINE P-388/SCHABEL (MTT); format: cell-based; details: Mus musculus, P388, 72 h, read-out: ACTIVITY: IC50
Procedure: as §1, §2, §3, §4, §5

CHOC5 (MDR) = assay: LAMELLARINS TOXICITY TO RESISTANT (MDR) TUMOR CELL LINE CHOC5 (MTT); format: cell-based, chinese hamster; details: Cricetulus griseus, 72 h, read-out: ACTIVITY: IC50
Procedure: as §1, §2, §3, §4, §5

CHOB1 = assay: LAMELLARINS TOXICITY TO SENSITIVE TUMOR CELL LINE CHOB1 (MTT); format: cell-based, chinese hamster; details: Cricetulus griseus, 72 h, read-out: ACTIVITY: IC50
Procedure: as §1, §2, §3, §4, §5

A549 = assay: Lamellarin in vitro activity vs. tumor cell lines, A549; details: for IC50: Homo sapiens; for in vitro antitumor activities: compared with lamellarins I, K and L, particularly A549 cells
HT-29 = assay: Lamellarin in vitro activity vs. tumor cell lines, HT-29; format: cell-based; details: Homo sapiens; HT-29, Table IV
P388 = assay: Lamellarin in vitro activity vs. tumor cell lines, P388; details: Mus musculus
MEL-28 = assay: Lamellarin in vitro activity vs. tumor cell lines, MEL-28; format: cell-based; details: Homo sapiens, SK-MEL-28; MEL-28, Table IV
MLR = assay: Immunomodulatory activity (LcV:MLR); format: cell-based; details: in words
[1] = tested on: P388 Lymphocytic Leukemia; assay: In vivo anti-tumor activity vs P388 lymphocytic leukemia; design: species or system mouse; details: total 75.000 mg/kg, QD 1-5, ip
[2] = P-388, sensitive, MTT, three days
[3] = P-388/SCHABEL (MDR), MTT, three days
[4] = CHOB1, sensitive, MTT, three days
[5] = A549, read-out: cytotoxicity IC50
[6] = P388, read-out: cytotoxicity IC50

Structure (SMILES)	IC50 (P-388; [2]) [µg/mL]	IC50 (P-388/SCHABEL (MDR); [3]) [µg/mL]	IC50 (CHOC5 (MDR); CHOC5 (MDR), MTT, three days) [µg/mL]	IC50 (CHOB1; [4]) [µg/mL]	IC50 (A549; A549) [µg/mL]	IC50 (HT-29) [µg/mL]	IC50 (P388; P388) [µg/mL]	other results
COc1cc(-c2c3n(c4c(=O)oc5cc(O)c(OC)cc5c24)C(O)Cc2c-3cc(OC)c(OC)c2OC)ccc1O (centres unmarked) [Lamellarin A]	0.5 (≈ 0.89 µM)	0.5 (≈ 0.89 µM)	0.4 (≈ 0.712 µM)	0.2 (≈ 0.356 µM)				
COc1cc(-c2c3c4cc(OC)c(O)cc4oc(=O)c3n3ccc4c(OC)c(OC)c(OC)cc4c23)ccc1O [Lamellarin B]	5.5 (≈ 10.1 µM)	5.5 (≈ 10.1 µM)	10 (≈ 18.4 µM)	3 (≈ 5.52 µM)				
COc1cc(-c2c3c4cc(OC)c(OC(C)=O)cc4oc(=O)c3n3ccc4cc(OC(C)=O)c(OC)cc4c23)ccc1OC(C)=O [Lamellarin D-triacetate]	0.07 (≈ 0.112 µM)	0.09 (≈ 0.144 µM)	0.04 (≈ 0.0639 µM)	0.03 (≈ 0.048 µM)				
COc1ccc(-c2c3n(c4c(=O)oc5cc(OC)c(OC)cc5c24)CCc2c-3cc(OC)c(OC)c2OC)cc1OC [Lamellarin I-Methylate]	2.5 (≈ 4.36 µM)	3 (≈ 5.23 µM)	2.5 (≈ 4.36 µM)	0.5 (≈ 0.872 µM)				
COc1ccc(-c2c3n(c4c(=O)oc5cc(OC(C)=O)c(OC)cc5c24)CCc2c-3cc(OC)c(OC)c2OC)cc1OC [Lamellarin I-acetate]	5.5 (≈ 9.14 µM)	5.5 (≈ 9.14 µM)	5 (≈ 8.31 µM)	2.5 (≈ 4.16 µM)				
COc1cc2c(cc1O)oc(=O)c1c2c(-c2ccc(OC)c(OC)c2)c2n1CCc1c-2cc(OC)c(OC)c1OC [Lamellarin I]	2.5 (≈ 4.47 µM)	2.5 (≈ 4.47 µM)	1 (≈ 1.79 µM)	0.2 (≈ 0.357 µM)	1 (≈ 1.79 µM)	2 (≈ 3.57 µM)	1 (≈ 1.79 µM)	IC50 (A549; [5]): ~0.25 µg/mL (≈ 0.447 µM); IC50 (P388; [6]): ~0.25 µg/mL (≈ 0.447 µM)
COc1cc2c(cc1O)CCn1c-2c(-c2ccc(OC)c(OC)c2)c2c3cc(OC)c(O)cc3oc(=O)c21 [Lamellarin J]	1.5 (≈ 2.91 µM)	2 (≈ 3.88 µM)	0.6 (≈ 1.16 µM)	0.3 (≈ 0.582 µM)	0.025 (≈ 0.0485 µM)	2.5 (≈ 4.85 µM)	0.1 (≈ 0.194 µM)	in vitro antitumor activities (A549): significantly better, particularly against A549 cells, than the lamellarins I, K and L; IC50 (MEL-28): 2.5 µg/mL (≈ 4.85 µM)
COc1cc(-c2c3n(c4c(=O)oc5cc(OC(C)=O)c(OC)cc5c24)CCc2c-3cc(OC)c(OC)c2OC(C)=O)ccc1OC(C)=O [Lamellarin K-triacetate]	0.06 (≈ 0.0912 µM)	0.1 (≈ 0.152 µM)	0.1 (≈ 0.152 µM)	0.1 (≈ 0.152 µM)				
COc1cc(-c2c3n(c4c(=O)oc5cc(O)c(OC)cc5c24)CCc2c-3cc(OC)c(OC)c2O)ccc1O [Lamellarin K]	0.1 (≈ 0.188 µM)	0.1 (≈ 0.188 µM)	0.4 (≈ 0.753 µM)	0.1 (≈ 0.188 µM)	0.25 (≈ 0.47 µM)	1 (≈ 1.88 µM)	0.25 (≈ 0.47 µM)	IC50 (A549; [5]): ~0.25 µg/mL (≈ 0.47 µM); immunomodulatory activity (MLR): moderate immunomodulatory activity; IC50 (P388; [6]): ~0.25 µg/mL (≈ 0.47 µM); % T/C [1]: > 135.0%; Body Weight Change Day 5 [1]: 1.2 gm; Body Weight Day 5 [1]: 20.7 ± 0.5 gm; Mean Survival Time [1]: 28.3 ± 5.9; Body Weight Day 0 ([1]; baseline): 19.5 ± 0.5 gm
COc1ccc(-c2c3n(c4c(=O)oc5cc(OC(C)=O)c(OC)cc5c24)CCc2cc(OC(C)=O)c(OC)cc2-3)cc1OC(C)=O [Lamellarin L-triacetate]	1.5 (≈ 2.39 µM)	1.5 (≈ 2.39 µM)	1.5 (≈ 2.39 µM)	1.5 (≈ 2.39 µM)				
COc1ccc(-c2c3n(c4c(=O)oc5cc(O)c(OC)cc5c24)CCc2cc(O)c(OC)cc2-3)cc1O [Lamellarin L]	0.6 (≈ 1.2 µM)	0.7 (≈ 1.4 µM)	0.6 (≈ 1.2 µM)	0.4 (≈ 0.798 µM)	0.25 (≈ 0.499 µM)	2 (≈ 3.99 µM)	0.25 (≈ 0.499 µM)	IC50 (A549; [5]): ~0.25 µg/mL (≈ 0.499 µM); immunomodulatory activity (MLR): moderate immunomodulatory activity; IC50 (P388; [6]): ~0.25 µg/mL (≈ 0.499 µM)
COc1cc(-c2c3c4cc(OC)c(OC(C)=O)cc4oc(=O)c3n3ccc4c(OC(C)=O)c(OC)c(OC)cc4c23)ccc1OC(C)=O [Lamellarin M-triacetate]	0.6 (≈ 0.915 µM)	0.7 (≈ 1.07 µM)	2 (≈ 3.05 µM)	0.5 (≈ 0.763 µM)				
COc1cc(-c2c3c4cc(OC)c(O)cc4oc(=O)c3n3ccc4c(O)c(OC)c(OC)cc4c23)ccc1O [Lamellarin M]					0.025 (≈ 0.0472 µM)	0.5 (≈ 0.944 µM)	0.05 (≈ 0.0944 µM)	in vitro antitumor activities (A549): significantly better, particularly against A549 cells, than the lamellarins I, K and L; IC50 (P-388): 0.08 µg/mL (≈ 0.151 µM); IC50 (MEL-28): 0.5 µg/mL (≈ 0.944 µM); IC50 (P-388/SCHABEL (MDR)): 0.09 µg/mL (≈ 0.17 µM); IC50 (CHOC5 (MDR)): 0.09 µg/mL (≈ 0.17 µM); IC50 (CHOB1): 0.04 µg/mL (≈ 0.0755 µM)
COc1ccc(-c2c3c4cc(OC)c(OC(C)=O)cc4oc(=O)c3n3ccc4cc(OC(C)=O)c(OC)cc4c23)cc1OC(C)=O [Lamellarin N-triacetate]	0.09 (≈ 0.144 µM)	0.2 (≈ 0.32 µM)	0.1 (≈ 0.16 µM)	0.06 (≈ 0.0959 µM)	0.012 (≈ 0.0192 µM)	5 (≈ 7.99 µM)	0.1 (≈ 0.16 µM)	in vitro antitumor activities (A549): significantly better, particularly against A549 cells, than the lamellarins I, K and L; IC50 (MEL-28): 5 µg/mL (≈ 7.99 µM)
C/C=C/C[C@@H](C)C(=O)[C@H]1C(=O)N[C@@H](C(C)C)C(=O)N(C)CC(=O)N(C)[C@@H](CC(C)C)C(=O)N[C@@H](C(C)C)C(=O)N(C)[C@@H](CC(C)C)C(=O)N[C@@H](C)C(=O)N[C@H](C)C(=O)N(C)[C@@H](CC(C)C)C(=O)N(C)[C@@H](CC(C)C)C(=O)N(C)[C@@H](C(C)C)C(=O)N1C [PSC833, reference compound]	0.02 (≈ 0.0165 µM)	0.05 (≈ 0.0412 µM)	0.1 (≈ 0.0823 µM)	0.04 (≈ 0.0329 µM)				
COc1ccc(CCN(C)CCCC(C#N)(c2ccc(OC)c(OC)c2)C(C)C)cc1OC (centres unmarked) [Verapamil, reference compound]	10 (≈ 22 µM)	10 (≈ 22 µM)	4 (≈ 8.8 µM)	9 (≈ 19.8 µM)				
